Values of other authors, collected in patent US20090093547A1, “Compositions and Methods for Treating Premature Ejaculation” (Sciele Pharma, Inc., priority 2007, published 2009).
Where a name gives a salt, the structure may show the parent alone.

Conditions: hydrochloride salt crystallized from ethanol and isopropyl ether

solubility in water: readily soluble
SMILES: CCCNC(C)C(=O)Nc1ccccc1C (stereo not shown) [Prilocalne hydrochloride salt, Prilocalne]
